Source: patent US9695155B2, “Herbicidal substituted pyrimidinyloxy benzene compounds” (E. I. DU PONT DE NEMOURS AND COMPANY, priority 2013, dated 2017)

Assays:
giant foxtail [1] = test: Test A preemergence; format: in vivo, Setaria faberii; conditions: for Foxtail, Giant plant response rating (0 to 100 scale): 125 g ai/ha; for Foxtail, Giant plant response rating: 500 g ai/ha, 0 to 100 scale where 0 is no effect and 100 is complete control
Procedure, shortened: (§1)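 Compounds in non-phytotoxic solvent with surfactant applied as soil spray preemergence, or postemergence to plants 2-10 cm at one- to two-leaf stage, in loam/sand. After approximately 10 days in greenhouse, injury rated visually versus untreated controls, 0 (no effect) to 100 (complete control).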

soybean = test: Test C postemergence; format: in vivo, Glycine max; conditions: for Plant response rating (0 to 100), Soybean: 16 g ai/ha, 0 is no effect, 100 is complete control; for Soybean plant response rating: 31 g ai/ha, 13 to 15 days; for Soybean plant response rating / Plant response rating, Soybean: scale 0 to 100 (0 no effect, 100 complete control)
Procedure, shortened: (§2)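 Greenhouse herbicide screen. Pre: seeded loam/sand, sprayed at planting. Post: 1–4 leaf plants (2–18 cm) in peat-based mix. Formulation: solvent mixture + surfactant, non-phytotoxic. Readout: visual % control vs untreated, 13–15 d; dash = not tested.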

rice = test: Test B flooded paddy test; format: in vivo, Oryza sativa; conditions: Flood, 250 g ai/ha; 0 to 100 scale where 0 is no effect and 100 is complete control
Procedure, shortened: (§3)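 Visual ratings on a 0 to 100 scale, where 100 means complete control, compared treated plants with controls after 13 to 15 days in a greenhouse. Treatment went into paddy water 3 cm deep over the soil, applied to plants at the 2-leaf stage.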

large (Lg) crabgrass = test: Test A postemergence; format: in vivo, Digitaria sanguinalis; conditions: 0 to 100 scale where 0 is no effect and 100 is complete control; for Crabgrass, Large plant response rating: 125 g ai/ha; for Plant response rating, Crabgrass, Large: 500 g ai/ha
Procedure, shortened: as §1

Italian ryegrass = test: Test C postemergence; format: in vivo, Lolium multiflorum; conditions: for Plant response rating (0 to 100), Ryegrass, Italian: 16 g ai/ha, 0 is no effect, 100 is complete control; for Ryegrass, Italian plant response rating: 31 g ai/ha, 13 to 15 days; for Ryegrass, Italian plant response rating / Plant response rating, Ryegrass, Italian: scale 0 to 100 (0 no effect, 100 complete control)
Procedure, shortened: as §2

waterhemp = test: Test C postemergence; format: in vivo, Amaranthus rudis; conditions: for Plant response rating (0 to 100), Waterhemp: 16 g ai/ha, 0 is no effect, 100 is complete control; for Waterhemp plant response rating: 31 g ai/ha, 13 to 15 days; for Waterhemp plant response rating / Plant response rating, Waterhemp: scale 0 to 100 (0 no effect, 100 complete control)
Procedure, shortened: as §2

chickweed = test: Test C postemergence; format: in vivo, Stellaria media; conditions: for Plant response rating (0 to 100), Chickweed: 16 g ai/ha, 0 is no effect, 100 is complete control; for Chickweed plant response rating: 31 g ai/ha, 13 to 15 days; for Chickweed plant response rating / Plant response rating, Chickweed: scale 0 to 100 (0 no effect, 100 complete control)
Procedure, shortened: as §2

corn = test: Test A preemergence; format: in vivo, Zea mays; conditions: for Corn plant response rating (0 to 100 scale): 125 g ai/ha; for Corn plant response rating: 500 g ai/ha, 0 to 100 scale where 0 is no effect and 100 is complete control
Procedure, shortened: as §1

sedge, umbrella = test: Test B flooded paddy test; format: in vivo, Cyperus difformis; conditions: Flood, 250 g ai/ha; 0 to 100 scale where 0 is no effect and 100 is complete control
Procedure, shortened: as §3

galium = test: Test C postemergence; format: in vivo, Galium aparine; conditions: for Plant response rating (0 to 100), Galium: 16 g ai/ha, 0 is no effect, 100 is complete control; for Galium plant response rating: 31 g ai/ha, 13 to 15 days; for Galium plant response rating / Plant response rating, Galium: scale 0 to 100 (0 no effect, 100 complete control)
Procedure, shortened: as §2

lambsquarters = test: Test C postemergence; format: in vivo, Chenopodium album; conditions: for Plant response rating (0 to 100), Lambsquarters: 16 g ai/ha, 0 is no effect, 100 is complete control; for Lambsquarters plant response rating: 31 g ai/ha, 13 to 15 days; for Lambsquarters plant response rating / Plant response rating, Lambsquarters: scale 0 to 100 (0 no effect, 100 complete control)
Procedure, shortened: as §2

giant foxtail [2] = test: Test A postemergence; format: in vivo, Setaria faberii; conditions: 0 to 100 scale where 0 is no effect and 100 is complete control; for Foxtail, Giant plant response rating: 125 g ai/ha; for Plant response rating, Foxtail, Giant: 500 g ai/ha
Procedure, shortened: as §1

wheat = test: Test A preemergence; format: in vivo, Triticum aestivum; conditions: for Wheat plant response rating (0 to 100 scale): 125 g ai/ha; for Wheat plant response rating: 500 g ai/ha, 0 to 100 scale where 0 is no effect and 100 is complete control
Procedure, shortened: as §1

oilseed rape = test: Test C postemergence; format: in vivo, Brassica napus; conditions: for Plant response rating (0 to 100), Oilseed Rape: 16 g ai/ha, 0 is no effect, 100 is complete control; for Oilseed Rape plant response rating: 31 g ai/ha, 13 to 15 days; for Oilseed Rape plant response rating / Plant response rating, Oilseed Rape: scale 0 to 100 (0 no effect, 100 complete control)
Procedure, shortened: as §2

barnyardgrass = test: Test B flooded paddy test; format: in vivo, Echinochloa crus-galli; conditions: Flood, 250 g ai/ha; 0 to 100 scale where 0 is no effect and 100 is complete control
Procedure, shortened: as §3

pigweed = test: Test A postemergence; format: in vivo, Amaranthus retroflexus; conditions: 0 to 100 scale where 0 is no effect and 100 is complete control; for Pigweed plant response rating: 125 g ai/ha; for Plant response rating, Pigweed: 500 g ai/ha
Procedure, shortened: as §1

[3] = 125 g ai/ha, postemergence, visual rating

Q: Which results are given for Cc1cnc(Oc2cccc(C#N)c2-n2cc(C(F)(F)F)cn2)nc1 [Compound 180]?
A: Foxtail, Giant plant response rating (0 to 100 scale) (giant foxtail [1]): 100; Foxtail, Giant plant response rating (giant foxtail [1]): 100; Plant response rating (0 to 100), Soybean (soybean; postemergence): 85; Soybean plant response rating (soybean; postemergence, visual rating): 85; Plant response rating, Soybean (soybean; [3]): 95; Plant response rating, Soybean (soybean; Postemergence, 62 g ai/ha): 98; Plant response rating, Rice (rice): 40; Crabgrass, Large plant response rating (large (Lg) crabgrass): 90; Plant response rating, Crabgrass, Large (large (Lg) crabgrass): 90; Plant response rating (0 to 100), Ryegrass, Italian (Italian ryegrass; postemergence): 0; Ryegrass, Italian plant response rating (Italian ryegrass; postemergence, visual rating): 0; Plant response rating, Ryegrass, Italian (Italian ryegrass; [3]): 10; Plant response rating, Ryegrass, Italian (Italian ryegrass; Postemergence, 62 g ai/ha): 5; Plant response rating (0 to 100), Waterhemp (waterhemp; postemergence): 25; Waterhemp plant response rating (waterhemp; postemergence, visual rating): 60; Plant response rating, Waterhemp (waterhemp; [3]): 75; Plant response rating, Waterhemp (waterhemp; Postemergence, 62 g ai/ha): 70; Plant response rating (0 to 100), Chickweed (chickweed; postemergence): 50; Chickweed plant response rating (chickweed; postemergence, visual rating): 60; Plant response rating, Chickweed (chickweed; [3]): 80; Plant response rating, Chickweed (chickweed; Postemergence, 62 g ai/ha): 70; Corn plant response rating (0 to 100 scale) (corn): 60; Corn plant response rating (corn): 90; Plant response rating, Sedge, Umbrella (sedge, umbrella): 80; Plant response rating (0 to 100), Galium (galium; postemergence): 50; Galium plant response rating (galium; postemergence, visual rating): 55; Plant response rating, Galium (galium; [3]): 90; Plant response rating, Galium (galium; Postemergence, 62 g ai/ha): 60; Plant response rating (0 to 100), Lambsquarters (lambsquarters; postemergence): 35; Lambsquarters plant response rating (lambsquarters; postemergence, visual rating): 55; Plant response rating, Lambsquarters (lambsquarters; [3]): 85; Plant response rating, Lambsquarters (lambsquarters; Postemergence, 62 g ai/ha): 75; Foxtail, Giant plant response rating (giant foxtail [2]): 90; Plant response rating, Foxtail, Giant (giant foxtail [2]): 90; Wheat plant response rating (0 to 100 scale) (wheat): 20; Wheat plant response rating (wheat): 80; Plant response rating (0 to 100), Oilseed Rape (oilseed rape; postemergence): 15; Oilseed Rape plant response rating (oilseed rape; postemergence, visual rating): 25; Plant response rating, Oilseed Rape (oilseed rape; [3]): 55; Plant response rating, Oilseed Rape (oilseed rape; Postemergence, 62 g ai/ha): 40; Plant response rating, Barnyardgrass (barnyardgrass): 60; Pigweed plant response rating (pigweed): 100; Plant response rating, Pigweed (pigweed): 100

Q: What does the source list for Clc1cnc(Oc2cccc(Cl)c2-n2cc(I)cn2)nc1 [Compound 181]?
A: Foxtail, Giant plant response rating (0 to 100 scale) (giant foxtail [1]): 90; Foxtail, Giant plant response rating (giant foxtail [1]): 100; Plant response rating (0 to 100), Soybean (soybean; postemergence): 35; Soybean plant response rating (soybean; postemergence, visual rating): 50; Plant response rating, Soybean (soybean; [3]): 95; Plant response rating, Soybean (soybean; Postemergence, 62 g ai/ha): 50; Plant response rating, Rice (rice): 0; Crabgrass, Large plant response rating (large (Lg) crabgrass): 70; Plant response rating, Crabgrass, Large (large (Lg) crabgrass): 90; Plant response rating (0 to 100), Ryegrass, Italian (Italian ryegrass; postemergence): 0; Ryegrass, Italian plant response rating (Italian ryegrass; postemergence, visual rating): 0; Plant response rating, Ryegrass, Italian (Italian ryegrass; [3]): 10; Plant response rating, Ryegrass, Italian (Italian ryegrass; Postemergence, 62 g ai/ha): 5; Plant response rating (0 to 100), Waterhemp (waterhemp; postemergence): 80; Waterhemp plant response rating (waterhemp; postemergence, visual rating): 85; Plant response rating, Waterhemp (waterhemp; [3]): 98; Plant response rating, Waterhemp (waterhemp; Postemergence, 62 g ai/ha): 85; Plant response rating (0 to 100), Chickweed (chickweed; postemergence): 55; Chickweed plant response rating (chickweed; postemergence, visual rating): 75; Plant response rating, Chickweed (chickweed; [3]): 85; Plant response rating, Chickweed (chickweed; Postemergence, 62 g ai/ha): 80; Corn plant response rating (0 to 100 scale) (corn): 0; Corn plant response rating (corn): 30; Plant response rating, Sedge, Umbrella (sedge, umbrella): 85; Plant response rating (0 to 100), Galium (galium; postemergence): 60; Galium plant response rating (galium; postemergence, visual rating): 65; Plant response rating, Galium (galium; [3]): 80; Plant response rating, Galium (galium; Postemergence, 62 g ai/ha): 70; Plant response rating (0 to 100), Lambsquarters (lambsquarters; postemergence): 75; Lambsquarters plant response rating (lambsquarters; postemergence, visual rating): 100; Plant response rating, Lambsquarters (lambsquarters; [3]): 100; Plant response rating, Lambsquarters (lambsquarters; Postemergence, 62 g ai/ha): 100; Foxtail, Giant plant response rating (giant foxtail [2]): 70; Plant response rating, Foxtail, Giant (giant foxtail [2]): 90; Wheat plant response rating (0 to 100 scale) (wheat): 0; Wheat plant response rating (wheat): 10; Plant response rating (0 to 100), Oilseed Rape (oilseed rape; postemergence): 55; Oilseed Rape plant response rating (oilseed rape; postemergence, visual rating): 60; Plant response rating, Oilseed Rape (oilseed rape; [3]): 100; Plant response rating, Oilseed Rape (oilseed rape; Postemergence, 62 g ai/ha): 60; Plant response rating, Barnyardgrass (barnyardgrass): 0; Pigweed plant response rating (pigweed): 100; Plant response rating, Pigweed (pigweed): 100
